# In patent publication US20230293537A1, “USE OF ACETAMIDE DERIVATIVE IN PREVENTION AND TREATMENT OF ALZHEIMER'S DISEASE” (ACADEMY OF MILITARY MEDICAL SCIENCES, priority 2020, published 2023):
# Test system: 5×FAD transgenic mice
# Assay: Morris water maze test of spatial learning and memory in 5×FAD transgenic mice
# Format: in vivo
# Source text: Animals: 5×FAD transgenic mice, male, SPF grade, initial body weight of 25-35 g; provided by Zhang Cheng Laboratory of Peking University. Male 5×FAD transgenic mice produced by breeding 5×FAD transgenic mice with WT mice and their littermate WT mice were used for the experiments, weighing 27-35 g. The 5×FAD transgenic mice were used as acute AD mouse model, the mice could develop AD pathological features at two or three months old, and behavioral changes appeared at five months old. The mice were administered at four months old, and after continuous administration for two months, the spatial learning and memory abilities of the mice were tested by water maze.
# (1) Administration: 4-month-old mice were divided into four groups, namely WT (physiological saline), 5×FAD (physiological saline), 5×FAD (YL-IPA08, 0.3 mg/kg), 5×FAD (YL-IPA08, 1 mg/kg), intragastrically (i.g.) administered, once a day. After continuous administration for 8 weeks, the spatial learning and memory ability of the mice were tested by Morris water maze.
# (2) Morris water maze test: The Morris water maze test was performed after 8 weeks of the administration of YL-IPA08 (0.3, 1 mg/kg). The water maze consisted of a circular stainless steel pool with a diameter of 120 cm and a depth of 60 cm, and the diameter of the escape platform was 10 cm. The day before the test, the mice were allowed to swim in the water maze for 30 s-60 s to acclimate to the environment. During the training, the mice were allowed to swim freely for 60 s to find the platform. If the mice found the hidden platform autonomously, they were allowed to stay there for 30 seconds, and then taken out. If the mice could not find the platform autonomously, they were guided onto the platform and allowed to stay there for 30 seconds, and then taken out. Training was performed twice a day for 5-7 days until the latency of WT mice to find the platform no longer decreased, and the latency, distance and path of the mice to find the hidden platform in the water maze were recorded. The test was performed 24 hours after the last training session, in which the platform was removed, and the mice were allowed to explore freely in the water maze for 1 minute, and the number of times the mice crossed the position of the platform and the time they stayed in the quadrant of the platform were recorded. There were 8-10 mice per group.
# All data were presented by x±SEM. Data statistics and analysis were performed using GraphPad Prism 6.0. Significant differences were assessed by unpaired Student's t test, one-way ANOVA or two-way ANOVA followed by Tukey's multiple comparison test.
# [1] = 5×FAD transgenic mice, YL-IPA08 0.3, 1 mg/kg i.g. once a day for 8 weeks, 6 days training, vs solvent control group of 5×FAD mice
smiles,measurement,setting,value
"CCN(Cc1ccccn1)C(=O)Cc1c(-c2ccc(Cl)c(Cl)c2)nc2cc(C)ccn12.Cl [YL-IPA08, N-ethyl-N-(2-pyridylmethyl)-2-[2-(3,4-dichlorophenyl)-7-methyl-imidazo[1,2-a]pyridin-3-yl]-acetamide·hydrochloride]",learning and cognitive impairment in 5×FAD mice (overall conclusion),"5×FAD mice, 0.3, 1 mg/kg i.g. once a day for 8 weeks, Morris water maze",can improve learning and cognitive impairment
same,average swimming speed (test period),"5×FAD transgenic mice, 0.3, 1 mg/kg i.g. once a day for 8 weeks, comparison of the mice in each group",not significantly different
same,number of times the mice crossed the platform (test period),"5×FAD transgenic mice, 0.3, 1 mg/kg i.g. once a day for 8 weeks, test 24 hours after last training, platform removed, 1 minute, vs solvent control group",significantly higher
same,distance to find the platform (water maze training),[1],significantly shortened
same,latency to find the platform (water maze training),[1],significantly shortened
